Measurements from patent US20070179060A1, “6-(Poly-substituted aryl)-4-aminopicolinates and their use as herbicides” (priority 2006, published 2007).
One block for each compound: values may come before it.

Key:
[1] = tested on: lambsquarter (Chenopodium album); assay: Postemergence herbicidal activity; format: in vivo; details: post-emergent, 140 g ai/ha, after 14 days; for pest or weed control at 140 g/ha: Chenopodium album, post-emergence, 336 h, read-out: % Control CHEAL
Summary of the method: (§1)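 Plants grown 7-21 days in greenhouse (about 15 h photoperiod, 23-29° C day, 22-28° C night) to first or second true leaf stage. Compounds in acetone/water/isopropanol/DMSO carrier with crop oil concentrate and Triton X-155 sprayed overhead at 187 L/ha; controls received solvent blank. Plants sub-irrigated afterwards; dose responses analysed by probit analysis.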

[2] = tested on: redroot pigweed (Amaranthus retroflexus); assay: Postemergence herbicidal activity; format: in vivo; details: post-emergent, 140 g ai/ha, after 14 days; for pest or weed control at 140 g/ha: Amaranthus retroflexus, post-emergence, 336 h, read-out: % Control AMARE
Summary of the method: as §1

[3] = tested on: velvetleaf (Abutilon theophrasti); assay: Postemergence herbicidal activity; format: in vivo; details: post-emergent, 140 g ai/ha, after 14 days; for pest or weed control at 140 g/ha: Abutilon theophrasti, post-emergence, 336 h, read-out: % Control ABUTH
Summary of the method: as §1

[4] = tested on: lambsquarter (Chenopodium album); assay: Preemergence herbicidal activity; format: in vivo; details: pre-emergent, after 20-22 days
From the text: (§2) Seeds of the desired test plant species were planted in a soil matrix prepared by mixing a loam soil (43 percent silt, 19 percent clay, and 38 percent sand, with a pH of about 8.1 and an organic matter content of about 1.5 percent) and sand in a 70 to 30 ratio. The soil matrix was contained in plastic pots with a surface area of 113 square centimeters. When required to ensure good germination and healthy plants, a fungicide treatment and/or other chemical or physical treatment was applied. […] Compound requirements are based upon a 12 mL application volume at a rate of 187 L/ha. Formulated compounds were applied to the plant material with an overhead Mandel track sprayer equipped with a […] nozzles calibrated to deliver 187 L/ha over an application area of 0.503 square meters at a spray height of 18 inches (43 cm) above the soil surface. Control plants were sprayed in the same manner with the solvent blank. The treated pots and control pots were placed in a greenhouse maintained with an approximate 15 hour photoperiod and temperatures of about 23-29° C. during the day and 22-28° C. during the night. Nutrients and water were added on a regular basis and supplemental lighting was provided with overhead metal halide 1000-watt lamps as necessary. The water was added by top-irrigation.

[5] = tested on: redroot pigweed (Amaranthus retroflexus); assay: Preemergence herbicidal activity; format: in vivo; details: pre-emergent, after 20-22 days
From the text: as §2

[6] = tested on: velvetleaf (Abutilon theophrasti); assay: Preemergence herbicidal activity; format: in vivo; details: pre-emergent, after 20-22 days
From the text: as §2

[7] = Chenopodium album, pre-emergence, 480 h, 140 g ai/ha, read-out: % Control CHEAL
[8] = Amaranthus retroflexus, pre-emergence, 480 h, 140 g ai/ha, read-out: % Control AMARE
[9] = Abutilon theophrasti, pre-emergence, 480 h, 140 g ai/ha, read-out: % Control ABUTH

melting point: 116 to 117 °C
Compound: COCc1c(Cl)ccc(-c2cc(N)c(Cl)c(C(=O)OC)n2)c1F [Compound 3, 4-Amino-3-chloro-6-(4-chloro-2-fluoro-3-methoxymethylphenyl)pyridine-2-carboxylic acid methyl ester]
pest or weed control at 140 g/ha [1]: 80%
pest or weed control at 140 g/ha [2]: 100%
pest or weed control at 140 g/ha [3]: 100%
pest or weed control at 140 g/ha [4, 7]: 95%
pest or weed control at 140 g/ha [5, 8]: 100%
pest or weed control at 140 g/ha [6, 9]: 98%

melting point: 113 to 115 °C
Compound: COC(=O)c1nc(-c2ccc(Cl)c(OCC(F)F)c2Cl)cc(N)c1Cl [Compound 10, 4-Amino-3-chloro-6-[2,4-dichloro-3-(2,2-difluoroethoxy)phenyl]pyridine-2-carboxylic acid methyl ester]
pest or weed control at 140 g/ha [1]: 100%
pest or weed control at 140 g/ha [2]: 100%
pest or weed control at 140 g/ha [3]: 90%
pest or weed control at 280 g/ha ([4]; Chenopodium album, pre-emergence, 480 h, 280 g ai/ha, read-out: % Control CHEAL): 80%
pest or weed control at 280 g/ha ([5]; Amaranthus retroflexus, pre-emergence, 480 h, 280 g ai/ha, read-out: % Control AMARE): 50%
pest or weed control at 280 g/ha ([6]; Abutilon theophrasti, pre-emergence, 480 h, 280 g ai/ha, read-out: % Control ABUTH): 40%

melting point: 151 to 152 °C
Compound: COC(=O)c1nc(-c2ccc3c(c2F)OCO3)c(F)c(N)c1Cl [Compound 12, 4-Amino-3-chloro-5-fluoro-6-(2-fluoro-3,4-methylenedioxyphenyl)pyridine-2-carboxylic acid methyl ester]
pest or weed control at 140 g/ha [1]: 100%
pest or weed control at 140 g/ha [2]: 100%
pest or weed control at 140 g/ha [3]: 100%
pest or weed control at 140 g/ha [4, 7]: 100%
pest or weed control at 140 g/ha [5, 8]: 100%
pest or weed control at 140 g/ha [6, 9]: 100%

melting point: 168 to 169 °C
Compound: COC(=O)c1nc(-c2cc(OC)c(Cl)cc2F)c(F)c(N)c1Cl [Compound 15, 4-Amino-3-chloro-5-fluoro-6-(4-chloro-2-fluoro-5-methoxyphenyl)pyridine-2-carboxylic acid methyl ester]
pest or weed control at 140 g/ha [1]: 100%
pest or weed control at 140 g/ha [2]: 100%
pest or weed control at 140 g/ha [3]: 100%
pest or weed control at 140 g/ha [4, 7]: 100%
pest or weed control at 140 g/ha [5, 8]: 100%
pest or weed control at 140 g/ha [6, 9]: 60%

melting point: 116 to 118 °C
Compound: COC(=O)c1nc(-c2ccc(Cl)c(C)c2F)cc(N)c1Cl [Compound 49, 4-Amino-3-chloro-6-(4-chloro-2-fluoro-3-methylphenyl)pyridine-2-carboxylic acid methyl ester]
pest or weed control at 140 g/ha [1]: 90%
pest or weed control at 140 g/ha [2]: 80%
pest or weed control at 140 g/ha [3]: 100%
pest or weed control at 140 g/ha [4, 7]: 99%
pest or weed control at 140 g/ha [5, 8]: 100%
pest or weed control at 140 g/ha [6, 9]: 100%

melting point: 120 to 122 °C
Compound: CCc1c(Cl)ccc(-c2cc(N)c(Cl)c(C(=O)OC)n2)c1F [Compound 64, 4-Amino-3-chloro-6-(4-chloro-3-ethyl-2-fluorophenyl)pyridine-2-carboxylic acid, methyl ester]
pest or weed control at 140 g/ha [1]: 100%
pest or weed control at 140 g/ha [2]: 100%
pest or weed control at 140 g/ha [3]: 95%
pest or weed control at 140 g/ha [4, 7]: 100%
pest or weed control at 140 g/ha [5, 8]: 100%
pest or weed control at 140 g/ha [6, 9]: 80%

melting point: 171 to 172 °C
Compound: CN(C)c1c(Cl)cc(F)c(-c2cc(N)c(Cl)c(C(=O)O)n2)c1F [Compound 94, 4-Amino-3-chloro-6-(4-chloro-2,6-difluoro-3-dimethylaminophenyl)pyridine-2-carboxylic acid]
pest or weed control at 140 g/ha [1]: 100%
pest or weed control at 140 g/ha [2]: 100%
pest or weed control at 140 g/ha [3]: 100%
pest or weed control at 140 g/ha [4, 7]: 100%
pest or weed control at 140 g/ha [5, 8]: 100%
pest or weed control at 140 g/ha [6, 9]: 100%

melting point: 179 to 181 °C (dec.)
Compound: Cc1c(Cl)ccc(-c2cc(N)c(Cl)c(C(=O)O)n2)c1F [Compound 99, 4-Amino-3-chloro-6-(4-chloro-2-fluoro-3-methylphenyl)pyridine-2-carboxylic acid]
pest or weed control at 140 g/ha [1]: 90%
pest or weed control at 140 g/ha [2]: 90%
pest or weed control at 140 g/ha [3]: 80%
pest or weed control at 140 g/ha [4, 7]: 95%
pest or weed control at 140 g/ha [5, 8]: 100%
pest or weed control at 140 g/ha [6, 9]: 100%

melting point: 177 to 178 °C (dec.)
Compound: CCOc1c(Cl)ccc(-c2cc(N)c(Cl)c(C(=O)O)n2)c1F [Compound 102, 4-Amino-3-chloro-6-(4-chloro-2-fluoro-3-ethoxyphenyl)pyridine-2-carboxylic acid]
pest or weed control at 140 g/ha [1]: 95%
pest or weed control at 140 g/ha [2]: 85%
pest or weed control at 140 g/ha [3]: 80%
pest or weed control at 140 g/ha [4, 7]: 0%
pest or weed control at 140 g/ha [5, 8]: 95%
pest or weed control at 140 g/ha [6, 9]: 85%

melting point: 187 to 188 °C (dec.)
Compound: COCc1c(Cl)ccc(-c2cc(N)c(Cl)c(C(=O)O)n2)c1F [Compound 105, 4-Amino-3-chloro-6-(4-chloro-2-fluoro-3-methoxymethylphenyl)pyridine-2-carboxylic acid]
pest or weed control at 140 g/ha [1]: 85%
pest or weed control at 140 g/ha [2]: 98%
pest or weed control at 140 g/ha [3]: 95%
pest or weed control at 140 g/ha [4, 7]: 95%
pest or weed control at 140 g/ha [5, 8]: 100%
pest or weed control at 140 g/ha [6, 9]: 100%

melting point: 202 to 203 °C (dec.)
Compound: Nc1cc(-c2ccc3c(c2F)OCO3)nc(C(=O)O)c1Cl [Compound 108, 4-Amino-3-chloro-6-(2-fluoro-3,4-methylenedioxyphenyl)pyridine-2-carboxylic acid]
pest or weed control at 140 g/ha [1]: 95%
pest or weed control at 140 g/ha [2]: 100%
pest or weed control at 140 g/ha [3]: 100%
pest or weed control at 140 g/ha [4, 7]: 90%
pest or weed control at 140 g/ha [5, 8]: 100%
pest or weed control at 140 g/ha [6, 9]: 90%

melting point: 187 to 188 °C (dec.)
Compound: COc1c(Cl)ccc(-c2cc(N)c(Cl)c(C(=O)O)n2)c1Cl [Compound 110, 4-Amino-3-chloro-6-(2,4-dichloro-3-methoxyphenyl)pyridine-2-carboxylic acid]
pest or weed control at 140 g/ha [1]: 85%
pest or weed control at 140 g/ha [2]: 90%
pest or weed control at 140 g/ha [3]: 80%
pest or weed control at 140 g/ha [4, 7]: 40%
pest or weed control at 140 g/ha [5, 8]: 40%
pest or weed control at 140 g/ha [6, 9]: 100%

melting point: 169 to 170 °C (dec.)
Compound: COCCOc1c(Cl)ccc(-c2cc(N)c(Cl)c(C(=O)O)n2)c1F [Compound 113, 4-Amino-3-chloro-6-(4-chloro-2-fluoro-3-methoxyethoxyphenyl)pyridine-2-carboxylic acid]
pest or weed control at 140 g/ha [4, 7]: 55%
pest or weed control at 140 g/ha [5, 8]: 0%
pest or weed control at 140 g/ha [6, 9]: 0%

melting point: 180 to 181 °C
Compound: COc1cc(-c2nc(C(=O)O)c(Cl)c(N)c2F)c(F)cc1Cl [Compound 122, 4-Amino-3-chloro-6-(4-chloro-2-fluoro-5-methoxyphenyl)-5-fluoropyridine-2-carboxylic acid]
pest or weed control at 140 g/ha [4, 7]: 100%
pest or weed control at 140 g/ha [5, 8]: 100%
pest or weed control at 140 g/ha [6, 9]: 100%

Compound: COc1c(Cl)ccc(-c2nc(C(=O)O)c(Cl)c(N)c2F)c1F [Compound 123, 4-Amino-3-chloro-6-(4-chloro-2-fluoro-3-methoxyphenyl)-5-fluoropyridine-2-carboxylic acid]
pest or weed control at 140 g/ha [1]: 100%
pest or weed control at 140 g/ha [2]: 100%
pest or weed control at 140 g/ha [3]: 100%
pest or weed control at 140 g/ha [4, 7]: 100%
pest or weed control at 140 g/ha [5, 8]: 100%
pest or weed control at 140 g/ha [6, 9]: 100%

Compound: Nc1cc(-c2ccc(F)c(F)c2F)nc(C(=O)O)c1Cl [Compound 131, 4-Amino-3-chloro-6-(2,3,4-trifluorophenyl)pyridine-2-carboxlic acid]
% Control CHEAL [1]: 100%
% Control AMARE [2]: 100%
% Control ABUTH [3]: 100%
% Control CHEAL ([4]; 140 g ai/ha): 100%
% Control AMARE ([5]; 140 g ai/ha): 100%
% Control ABUTH ([6]; 140 g ai/ha): 90%
